Data: patent EP0549857A1, “Antibacterial quinolone carboxylic acid derivatives” (KOREA RESEARCH INSTITUTE OF CHEMICAL TECHNOLOGY, priority 1991, dated 1993)
Values after ≈ are worked out from the molar mass of the structure shown. Read-outs that look alike come from different tables or passages of the source.

Experiments:
[1] = system: Streptococcus faecium MD 8b; test: In vitro anti-bacterial activity test (MIC, two-fold agar dilution); assay type: cell-based
Escherichia coli 1507E = test: as above; assay type: cell-based; conditions: Mueller-Hinton agar, 10⁷ CFU/mℓ, 37°C, 18 hours
[2] = system: Pseudomonas aeruginosa 1592E; test: as above; assay type: cell-based; conditions: Mueller-Hinton agar, 10⁷ CFU/mℓ, 37°C, 18 hours
[3] = system: Pseudomonas aeruginosa 9027; test: as above; assay type: cell-based
[4] = system: Streptococcus pyogenes 77A; test: as above; assay type: cell-based
[5] = system: Staphylococcus aureus SG 511; test: as above; assay type: cell-based
Enterobacter cloacae P99 = test: as above; assay type: cell-based; conditions: Mueller-Hinton agar, 10⁷ CFU/mℓ, 37°C, 18 hours
[6] = system: Staphylococcus aureus 503; test: as above; assay type: cell-based
Escherichia coli DC 0 = test: as above; assay type: cell-based; conditions: 10⁷ CFU/mℓ, 37°C, 18 hours
[7] = system: Enterobacter cloacae 1321E; test: as above; assay type: cell-based; conditions: Mueller-Hinton agar, 10⁷ CFU/mℓ, 37°C, 18 hours
[8] = system: Streptococcus pyogenes 308A; test: as above; assay type: cell-based; conditions: Mueller-Hinton agar, 10⁷ CFU/mℓ, 37°C, 18 hours
[9] = system: Klebsiella aerogenes 1522E; test: as above; assay type: cell-based; conditions: Mueller-Hinton agar, 10⁷ CFU/mℓ, 37°C, 18 hours
[10] = system: Klebsiella aerogenes 1082E; test: as above; assay type: cell-based; conditions: Mueller-Hinton agar, 10⁷ CFU/mℓ, 37°C, 18 hours
Escherichia coli DC 2 = test: as above; assay type: cell-based; conditions: 10⁷ CFU/mℓ, 37°C, 18 hours
Escherichia coli OTEM = test: as above; assay type: cell-based; conditions: Mueller-Hinton agar, 10⁷ CFU/mℓ, 37°C, 18 hours
Escherichia coli O 55 = test: as above; assay type: cell-based; conditions: 10⁷ CFU/mℓ, 37°C, 18 hours
[11] = system: Pseudomonas aeruginosa 1771; test: as above; assay type: cell-based
[12] = system: Staphylococcus aureus 285; test: as above; assay type: cell-based
Salmonella typhimurium = test: as above; assay type: cell-based; conditions: Mueller-Hinton agar, 10⁷ CFU/mℓ, 37°C, 18 hours
[13] = system: Pseudomonas aeruginosa 1771M; test: as above; assay type: cell-based; conditions: 18 h
P. mirabilis = test: Preventive effect on the systemic infection; assay type: in vivo; conditions: Proteus mirabilis, in Mus musculus, P. mirabilis intraperitoneal infection, NMRI mice, survival on day 7, probit analysis, read-out: ED₅₀
Method: (§1) 10 fold of the pathogen which leads to 100% lethality were injected intraperitoneally to male and female NMRI mice weighing 18 to 20g. Immediately and after 4 hours, the dose of test compounds which was determined by two-fold serial dilution method was administered orally or subcutaneously; and on day 7, the effectiveness was evaluated in terms of ED₅₀ calculated from the number of survived mice by the probit analysis.

S. aureus 17740 = test: Preventive effect on the systemic infection; assay type: in vivo; conditions: Staphylococcus aureus, 17740, in Mus musculus, S. aureus 17740 intraperitoneal infection, NMRI mice, survival on day 7, probit analysis, read-out: ED₅₀
Method: as §1

in vivo = conditions: female, ICR, mouse
Method: Test compounds were administered to female ICR mice weighing 20 to 25g and on day 14, LD₅₀ was calculated from the number of survived mice by the probit analysis.

[14] = DC0, Mueller-Hinton agar, read-out: MIC
[15] = DC2, Mueller-Hinton agar, read-out: MIC
[16] = O55, Mueller-Hinton agar, read-out: MIC
[17] = Oral Administration immediately and after 4 hours
[18] = Subcutaneous Injection immediately and after 4 hours
[19] = Salmonella enterica, read-out: MIC

Question: Which results are given for “7-[6-amino-3-azabicyclo[3,3,0]oct-1(5) ene-3-yl]-5-amino-1-cyclopropyl-6,8-difluoro-1,4-dihydro-4-oxoquinoline-3-carboxylic acid [Example 10]”?
Answer: MIC ([1]; Streptococcus faecium MD 8b, Mueller-Hinton agar, 10⁷ CFU/mℓ, 37°C, 18 hours): 0.195 µg/mL; MIC (Escherichia coli 1507E): 0.049 µg/mL; MIC [2]: 1.563 µg/mL; MIC ([3]; Pseudomonas aeruginosa 9027, Mueller-Hinton agar, 10⁷ CFU/mℓ, 37°C, 18 hours): 1.563 µg/mL; MIC ([4]; Streptococcus pyogenes 77A, Mueller-Hinton agar, 10⁷ CFU/mℓ, 37°C, 18 hours): 0.049 µg/mL; MIC ([5]; Staphylococcus aureus SG 511, Mueller-Hinton agar, 10⁷ CFU/mℓ, 37°C, 18 hours): 0.025 µg/mL; MIC (Enterobacter cloacae P99): 0.025 µg/mL; MIC ([6]; Staphylococcus aureus 503, Mueller-Hinton agar, 10⁷ CFU/mℓ, 37°C, 18 hours): 0.025 µg/mL; MIC (Escherichia coli DC 0; Mueller-Hinton agar): 0.781 µg/mL; MIC [7]: 0.025 µg/mL; MIC [8]: 0.195 µg/mL; MIC [9]: 0.098 µg/mL; MIC [10]: 7 ng/mL; MIC (Escherichia coli DC 2; Mueller-Hinton agar): 0.049 µg/mL; MIC (Escherichia coli OTEM): 0.049 µg/mL; MIC (Escherichia coli O 55; Mueller-Hinton agar): 0.025 µg/mL; MIC ([11]; Pseudomonas aeruginosa 1771, Mueller-Hinton agar, 10⁷ CFU/mℓ, 37°C, 18 hours): 1.563 µg/mL; MIC ([12]; Staphylococcus aureus 285, Mueller-Hinton agar, 10⁷ CFU/mℓ, 37°C, 18 hours): 0.049 µg/mL; MIC (Salmonella typhimurium): 0.025 µg/mL

Question: Which results are given for O=C(O)c1cn(C2CC2)c2cc(N3CCNCC3)c(F)cc2c1=O [Ciprofloxacin, reference compound]?
Answer: MIC ([1]; Enterococcus faecium, MD8B, 18 h): 0.781 µg/mL (≈ 2.36 µM); MIC ([2]; read-out: MIC): 0.391 µg/mL (≈ 1.18 µM); MIC ([3]; Pseudomonas aeruginosa, 9027, 18 h): 0.781 µg/mL (≈ 2.36 µM); MIC ([4]; Streptococcus pyogenes, 77A, 18 h): 0.781 µg/mL (≈ 2.36 µM); MIC ([5]; Staphylococcus aureus, SG511, 18 h): 0.781 µg/mL (≈ 2.36 µM); MIC ([6]; Staphylococcus aureus, 503, 18 h): 0.781 µg/mL (≈ 2.36 µM); MIC (Escherichia coli DC 0; [14]): 0.391 µg/mL (≈ 1.18 µM); MIC ([8]; read-out: MIC): 3.12 µg/mL (≈ 9.43 µM); MIC [13]: 0.195 µg/mL (≈ 0.589 µM); MIC (Escherichia coli DC 2; [15]): 0.195 µg/mL (≈ 0.589 µM); MIC (Escherichia coli O 55; [16]): 0.007 µg/mL (≈ 0.0211 µM); MIC ([11]; Pseudomonas aeruginosa, 1771, 18 h): 0.781 µg/mL (≈ 2.36 µM); ED50 (P. mirabilis; [17]): 0.92 mg/kg; ED50 (P. mirabilis; [18]): 0.28 mg/kg; ED50 (S. aureus 17740; [17]): > 200 mg/kg; ED50 (S. aureus 17740; [18]): 132 mg/kg; MIC ([12]; Staphylococcus aureus, 285, 18 h): 0.781 µg/mL (≈ 2.36 µM); MIC (Salmonella typhimurium; [19]): 0.049 µg/mL (≈ 0.148 µM)

Question: Which results are given for CNC1CCC2=C1CN(c1c(F)cc3c(=O)c(C(=O)O)cn(C4CC4)c3c1Cl)C2 (centres unmarked) [Example 4, 7-[6-methylamino-3-azabicyclo[3,3,0]oct-1(5)ene-3-yl]-8-chloro-1-cyclopropyl-6-fluoro-1,4-dihydro-4-oxoquinoline-3-carboxylic acid]?
Answer: MIC ([1]; Enterococcus faecium, MD8B, Streptococcus faecium MD 8b, Mueller-Hinton agar, 10⁷ CFU/mℓ, 37°C, 18 hours, read-out: MIC): 0.049 µg/mL (≈ 0.117 µM); MIC (Escherichia coli 1507E; read-out: MIC): 0.098 µg/mL (≈ 0.235 µM); MIC ([2]; read-out: MIC): 3.12 µg/mL (≈ 7.48 µM); MIC ([3]; Pseudomonas aeruginosa 9027, Mueller-Hinton agar, 10⁷ CFU/mℓ, 37°C, 18 hours, read-out: MIC): 3.12 µg/mL (≈ 7.48 µM); MIC ([4]; Streptococcus pyogenes 77A, Mueller-Hinton agar, 10⁷ CFU/mℓ, 37°C, 18 hours, read-out: MIC): 0.025 µg/mL (≈ 0.0598 µM); MIC ([5]; SG511, Staphylococcus aureus SG 511, Mueller-Hinton agar, 10⁷ CFU/mℓ, 37°C, 18 hours, read-out: MIC): 0.025 µg/mL (≈ 0.0598 µM); MIC (Enterobacter cloacae P99; read-out: MIC): 0.098 µg/mL (≈ 0.235 µM); MIC ([6]; Staphylococcus aureus 503, Mueller-Hinton agar, 10⁷ CFU/mℓ, 37°C, 18 hours, read-out: MIC): 0.025 µg/mL (≈ 0.0598 µM); MIC (Escherichia coli DC 0; [14]): 0.781 µg/mL (≈ 1.87 µM); MIC ([7]; read-out: MIC): 0.098 µg/mL (≈ 0.235 µM); MIC ([8]; read-out: MIC): 0.195 µg/mL (≈ 0.467 µM); MIC ([9]; read-out: MIC): 0.195 µg/mL (≈ 0.467 µM); MIC [13]: 0.781 µg/mL (≈ 1.87 µM); MIC ([10]; read-out: MIC): < 2 ng/mL; MIC (Escherichia coli DC 2; [15]): 0.025 µg/mL (≈ 0.0598 µM); MIC (Escherichia coli OTEM; read-out: MIC): 0.098 µg/mL (≈ 0.235 µM); MIC (Escherichia coli O 55; [16]): 0.025 µg/mL (≈ 0.0598 µM); MIC ([11]; Pseudomonas aeruginosa 1771, Mueller-Hinton agar, 10⁷ CFU/mℓ, 37°C, 18 hours, read-out: MIC): 3.12 µg/mL (≈ 7.48 µM); MIC ([12]; Staphylococcus aureus 285, Mueller-Hinton agar, 10⁷ CFU/mℓ, 37°C, 18 hours, read-out: MIC): 0.049 µg/mL (≈ 0.117 µM); MIC (Salmonella typhimurium; [19]): 0.049 µg/mL (≈ 0.117 µM)

Question: What does the source list for COc1c(N2CC3=C(C2)C(N)CC3)c(F)cc2c(=O)c(C(=O)O)cn(C3CC3)c12 (centres unmarked) [Example 6, 7-[6-amino-3-azabicyclo[3,3,0]oct-1(5)ene-3-yl]-1-cyclopropyl-6-fluoro-8-methoxy-1,4-dihydro-4-oxoquinoline-3-carboxylic acid]?
Answer: LD50 at 14 day (in vivo; ip): 755 mg/kg; LD50 at 14 day (in vivo; po): 4300 mg/kg
